Measurements taken from patent publication US20250368614A1, “COMPOUNDS AND METHODS FOR YAP/TEAD MODULATION AND INDICATIONS THEREFOR” (OPNA BIO SA, priority 2023, published 2025).

Each compound was assayed on TEAD-dependent transcription (12XGTIIC TEAD response element luciferase reporter) in MSTO-211H cells (assay: TEAD-dependent transcription cell-based luciferase reporter assay in MSTO-211H+12XGTIIC cells). Settings: Homo sapiens; MSTO-211H+12XGTIIC reporter cells, 24 hours compound incubation, luminescence normalized to cell viability signal, geometric mean; read-out: MSTO-211H GMean IC50 (uM) Cell Assay Reporter Cell Variant: TEAD.
Description: Determine Inhibitor Activity Against TEAD-Dependent Transcription in a Cell-Based Reporter Assay
The human mesothelioma cell line MSTO-211H was stably transfected with a pGL4.21 plasmid containing a synthetic promoter with 12 copies of the GTIIC TEAD response element that drives the expression of a luciferase reporter gene^1 using Lipofectamine transfection reagent (Thermo Fisher). Transfected cells were selected using puromycin and single cell clones expressing this construct (referred to as MSTO-211H+12XGTIIC) were generated by limiting dilution. MSTO-211H cells was characterized by genetic alterations in key components of the Hippo pathway^2, resulting in up-regulation of YAP/TEAD-mediated transcription. […] To evaluate TEAD inhibitors, the MSTO-211H+12XGTIIC cell line was seeded in a 96-well plate in 50 μL of culture media at 1×10^4 cells per well and incubated at 37° C. overnight. Serial dilutions of compounds (in total volume of 50 μL of culture media) were added to the cells and incubated at 37° C. for 24 hours. Each plate included cells treated with DMSO as high controls and cells treated with 20 μM of the reference compound K-975 (a known TEAD inhibitor^3) as low controls. Cell viability was assayed by the addition of 25 μL of CellTiter-Fluor reagent (Promega) followed by a 30-minute incubation at 37° C. and quantification of the fluorescence signal (Ex400/Em505). Subsequently, luciferase expression was assayed by the addition of 25 μL of ONE-Glo reagent (Promega) followed by a 10-minute incubation at room temperature and quantification of the luminescence signal. The luminescence signal was normalized to the fluorescence signal to correct for any loss in cell viability over the 24-hour compound incubation period. The percentage of inhibition of normalized luminescence signal, indicative of compound-mediated inhibition of TEAD-dependent transcription, at individual compound concentrations relative to high and low controls was calculated. The data were analyzed by using nonlinear regression to generate IC50 values for individual compounds.
`Nc1cc(C(=O)N2CCc3c(cccc3Nc3ccc(C(F)(F)F)cc3)C2)ccn1` [Compound O-0032, (2-aminopyridin-4-yl)(5-((4-(trifluoromethyl)phenyl)amino)-3,4-dihydroisoquinolin-2(1H)-yl)methanone] showed an IC50 of 0.001 to 10 µM.
Compound `Nc1nccc(C(=O)N2CCc3c(cccc3Nc3ccc(C(F)(F)F)cc3)C2)n1` [Compound O-0033, (2-aminopyrimidin-4-yl)(5-((4-(trifluoromethyl)phenyl)amino)-3,4-dihydroisoquinolin-2(1H)-yl)methanone] has an IC50 of 0.001 to 10 µM.
Compound `C=CC(=O)Nc1cccc(C(=O)N2CCc3c(cccc3Nc3ccc(C(F)(F)F)cc3)C2)c1` [Compound O-0034, N-(3-(5-((4-(trifluoromethyl)phenyl)amino)-1,2,3,4-tetrahydroisoquinoline-2-carbonyl)phenyl)acrylamide] has an IC50 of 0.001 to 10 µM.
`C=CC(=O)Nc1cccc(C(=O)N2CCc3c(cccc3Nc3ccc(C(F)(F)F)cc3)C2)n1` [Compound O-0035, N-(6-(5-((4-(trifluoromethyl)phenyl)amino)-1,2,3,4-tetrahydroisoquinoline-2-carbonyl)pyridin-2-yl)acrylamide] showed an IC50 of 0.001 to 10 µM.
`C=CC(=O)Nc1ccnc(C(=O)N2CCc3c(cccc3Nc3ccc(C(F)(F)F)cc3)C2)c1` [Compound O-0036, N-(2-(5-((4-(trifluoromethyl)phenyl)amino)-1,2,3,4-tetrahydroisoquinoline-2-carbonyl)pyridin-4-yl)acrylamide] gave an IC50 of 0.001 to 10 µM.
`C=CC(=O)Nc1cncc(C(=O)N2CCc3c(cccc3Nc3ccc(C(F)(F)F)cc3)C2)c1` [Compound O-0037, N-(5-(5-((4-(trifluoromethyl)phenyl)amino)-1,2,3,4-tetrahydroisoquinoline-2-carbonyl)pyridin-3-yl)acrylamide] showed an IC50 of 0.001 to 10 µM.
In the case of `C=CC(=O)Nc1cc(C(=O)N2CCc3c(cccc3Nc3ccc(C(F)(F)F)cc3)C2)ccn1` [Compound O-0038, N-(4-(5-((4-(trifluoromethyl)phenyl)amino)-1,2,3,4-tetrahydroisoquinoline-2-carbonyl)pyridin-2-yl)acrylamide], the IC50 is reported as 0.001 to 10 µM.
Compound `C=CC(=O)Nc1nccc(C(=O)N2CCc3c(cccc3Nc3ccc(C(F)(F)F)cc3)C2)n1` [Compound O-0039, N-(4-(5-((4-(trifluoromethyl)phenyl)amino)-1,2,3,4-tetrahydroisoquinoline-2-carbonyl)pyrimidin-2-yl)acrylamide] has an IC50 of 0.001 to 10 µM.
In the case of `CS(=O)(=O)c1nccc(C(=O)N2CCc3c(cccc3Nc3ccc(C(F)(F)F)cc3)C2)n1` [Compound O-0040, (2-(methylsulfonyl)pyrimidin-4-yl)(5-((4-(trifluoromethyl)phenyl)amino)-3,4-dihydroisoquinolin-2(1H)-yl)methanone], the IC50 is reported as 0.001 to 10 µM.
With `O=C(c1ccnc(Cl)n1)N1CCc2c(cccc2Nc2ccc(C(F)(F)F)cc2)C1` [Compound O-0041, (2-chloropyrimidin-4-yl)(5-((4-(trifluoromethyl)phenyl)amino)-3,4-dihydroisoquinolin-2(1H)-yl)methanone] the IC50 was 0.001 to 10 µM.
`CS(=O)(=O)c1nc(C(=O)N2CCc3c(cccc3Nc3ccc(C(F)(F)F)cc3)C2)c[nH]1` [Compound O-0045, (2-(methylsulfonyl)-1H-imidazol-4-yl)(5-((4-(trifluoromethyl)phenyl)amino)-3,4-dihydroisoquinolin-2(1H)-yl)methanone] gave an IC50 of 0.001 to 10 µM.
In the case of `O=C(Cc1c[nH]cn1)N1CCc2c(cccc2Nc2ccc(C(F)(F)F)cc2)C1` [Compound O-0053, 2-(1H-imidazol-4-yl)-1-(5-((4-(trifluoromethyl)phenyl)amino)-3,4-dihydroisoquinolin-2(1H)-yl)ethan-1-one], the IC50 is reported as 0.001 to 10 µM.
`O=C(CCc1cnc[nH]1)N1CCc2c(cccc2Nc2ccc(C(F)(F)F)cc2)C1` [Compound O-0054, 3-(1H-imidazol-5-yl)-1-(5-((4-(trifluoromethyl)phenyl)amino)-3,4-dihydroisoquinolin-2(1H)-yl)propan-1-one] showed an IC50 of 0.001 to 10 µM.
With `O=C1NC(=O)C(CC(=O)N2CCc3c(cccc3Nc3ccc(C(F)(F)F)cc3)C2)N1` (stereo not shown) [Compound O-0055, 5-(2-oxo-2-(5-((4-(trifluoromethyl)phenyl)amino)-3,4-dihydroisoquinolin-2(1H)-yl)ethyl)imidazolidine-2,4-dione] the IC50 was 0.001 to 10 µM.
`NC(=O)NCCC(=O)N1CCc2c(cccc2Nc2ccc(C(F)(F)F)cc2)C1` [Compound O-0056, 1-(3-oxo-3-(5-((4-(trifluoromethyl)phenyl)amino)-3,4-dihydroisoquinolin-2(1H)-yl)propyl)urea] showed an IC50 of 0.001 to 10 µM.
Work on `NC(=O)N1CCC(C(=O)N2CCc3c(cccc3Nc3ccc(C(F)(F)F)cc3)C2)C1` (stereo not shown) [Compound O-0057, 3-(5-((4-(trifluoromethyl)phenyl)amino)-1,2,3,4-tetrahydroisoquinoline-2-carbonyl)pyrrolidine-1-carboxamide] yielded an IC50 of 0.001 to 10 µM.
Work on `O=C(c1cccc2[nH]c(C(F)(F)F)nc12)N1CCc2c(cccc2Nc2ccc(C(F)(F)F)cc2)C1` [Compound O-0058, (2-(trifluoromethyl)-1H-benzo[d]imidazol-4-yl)(5-((4-(trifluoromethyl)phenyl)amino)-3,4-dihydroisoquinolin-2(1H)-yl)methanone] yielded an IC50 of 0.001 to 10 µM.
With `O=C(Cc1cn[nH]c1)N1CCc2c(cccc2Nc2ccc(C(F)(F)F)nc2)C1` [Compound O-0059, 2-(1H-pyrazol-4-yl)-1-(5-((6-(trifluoromethyl)pyridin-3-yl)amino)-3,4-dihydroisoquinolin-2(1H)-yl)ethan-1-one] the IC50 was 0.001 to 10 µM.
In the case of `O=C(c1cccc2cc[nH]c12)N1CCc2c(cccc2Nc2ccc(C(F)(F)F)nc2)C1` [Compound O-0060, (1H-indol-7-yl)(5-((6-(trifluoromethyl)pyridin-3-yl)amino)-3,4-dihydroisoquinolin-2(1H)-yl)methanone], the IC50 is reported as 0.001 to 10 µM.
`O=C(NC1CC1)N1CCC(C(=O)N2CCc3c(cccc3Nc3ccc(C(F)(F)F)cn3)C2)C1` (stereo not shown) [Compound O-0092, N-cyclopropyl-3-(5-((5-(trifluoromethyl)pyridin-2-yl)amino)-1,2,3,4-tetrahydroisoquinoline-2-carbonyl)pyrrolidine-1-carboxamide] showed an IC50 of 0.001 to 10 µM.
For `O=C(Nc1ccccn1)N1CCC(C(=O)N2CCc3c(cccc3Nc3ccc(C(F)(F)F)cn3)C2)C1` (stereo not shown) [Compound O-0093, N-(pyridin-2-yl)-3-(5-((5-(trifluoromethyl)pyridin-2-yl)amino)-1,2,3,4-tetrahydroisoquinoline-2-carbonyl)pyrrolidine-1-carboxamide], the IC50 was 0.001 to 10 µM.
In the case of `O=C(NC1CC1)N1CCC(C(=O)N2CCc3c(cccc3Nc3ccc(C(F)(F)F)cc3F)C2)C1` (stereo not shown) [Compound O-0094, N-cyclopropyl-3-(5-((2-fluoro-4-(trifluoromethyl)phenyl)amino)-1,2,3,4-tetrahydroisoquinoline-2-carbonyl)pyrrolidine-1-carboxamide], the IC50 is reported as 0.001 to 10 µM.
For `O=C(Nc1ccccn1)N1CCC(C(=O)N2CCc3c(cccc3Nc3ccc(C(F)(F)F)cc3F)C2)C1` (stereo not shown) [Compound O-0095, 3-(5-((2-fluoro-4-(trifluoromethyl)phenyl)amino)-1,2,3,4-tetrahydroisoquinoline-2-carbonyl)-N-(pyridin-2-yl)pyrrolidine-1-carboxamide], the IC50 was 0.001 to 10 µM.
Work on `O=C(NC1CC1)N1CCC(C(=O)N2CCc3c(cccc3Nc3ccc(C(F)(F)F)nc3)C2)C1` (stereo not shown) [Compound O-0096, N-cyclopropyl-3-(5-((6-(trifluoromethyl)pyridin-3-yl)amino)-1,2,3,4-tetrahydroisoquinoline-2-carbonyl)pyrrolidine-1-carboxamide] yielded an IC50 of 0.001 to 10 µM.
In the case of `O=C(Nc1ccccn1)N1CCC(C(=O)N2CCc3c(cccc3Nc3ccc(C(F)(F)F)nc3)C2)C1` (stereo not shown) [Compound O-0097, N-(pyridin-2-yl)-3-(5-((6-(trifluoromethyl)pyridin-3-yl)amino)-1,2,3,4-tetrahydroisoquinoline-2-carbonyl)pyrrolidine-1-carboxamide], the IC50 is reported as 0.001 to 10 µM.
For `O=C(NC1CC1)N1CCC(C(=O)N2CCc3c(cccc3Nc3ccc(C(F)(F)F)c(F)c3)C2)C1` (stereo not shown) [Compound O-0098, N-cyclopropyl-3-(5-((3-fluoro-4-(trifluoromethyl)phenyl)amino)-1,2,3,4-tetrahydroisoquinoline-2-carbonyl)pyrrolidine-1-carboxamide], the IC50 was 0.001 to 10 µM.
In the case of `O=C(NCCC(=O)N1CCc2c(cccc2Nc2ccc(C(F)(F)F)nc2)C1)Nc1ccccn1` [Compound O-0184, 1-(3-oxo-3-(5-((6-(trifluoromethyl)pyridin-3-yl)amino)-3,4-dihydroisoquinolin-2(1H)-yl)propyl)-3-(pyridin-2-yl)urea], the IC50 is reported as 0.001 to 10 µM.
`O=C(NCCC(=O)N1CCc2c(cccc2Nc2ccc(C(F)(F)F)c(F)c2)C1)Nc1ccccn1` [Compound O-0185, 1-(3-(5-((3-fluoro-4-(trifluoromethyl)phenyl)amino)-3,4-dihydroisoquinolin-2(1H)-yl)-3-oxopropyl)-3-(pyridin-2-yl)urea] was tested, and the IC50 was 0.001 to 10 µM.
